From BindingDB's records for doi:10.1021/jm200004e (University of Louisiana At Monroe, 2011)
*1 amine or outer side, *2 acyl side, *3 side chain or, on linkers, in order; H or OH if unused. Where a SMILES comes first, the peptide text is derived from it. [ ]: non-standard residue; d: D form. X1 = O=C(CCc1cccc2c1oc1c(CCN[*:1])cccc12)[*:2]

Assay: Inhibition of CD2 assessed as inhibition of CD2-CD58 protein-protein interaction mediated cell adhesion between CD58 expressing sheep red blood cells and CD2 expressing human Jurkat cells by E-rosettes assay

SMILES: CC[C@H](C)[C@@H]1NC(=O)[C@H](Cc2ccc(O)cc2)NC(=O)[C@H](CC(=O)O)NC(=O)CCc2cccc3c2Oc2c(cccc2-3)CCNC(=O)[C@H](CC(=O)O)NC(=O)[C@H](CC(=O)O)NC(=O)[C@H](CCCCN)NC1=O (cyclo(DD[X1]DYIK))
- IC50: 25.7 nM
